Measured values taken from ChEMBL document CHEMBL1139203, “Syntheses and antiproliferative evaluation of oxyphenisatin derivatives” (Bioorg Med Chem Lett, 2007).
Values after ≈ are worked out from the molar mass of the structure shown.

What was measured:
[1] = Antiproliferative activity against human MDA468 cells; type: functional, cell-based; conditions: MDA-MB-468
[2] = Antiproliferative activity against human MDA231 cells; type: functional, cell-based; conditions: MDA-MB-231
Cytochrome P450 2D6 = Cytochrome P450 2D6 (Homo sapiens, UniProt P10635); test: Inhibition of human CYP2D6; type: ADME
Cytochrome P450 3A4 = Cytochrome P450 3A4 (Homo sapiens, UniProt P08684); test: Inhibition of human CYP3A4; type: ADME
Cytochrome P450 1A2 = target: T1, Cytochrome P450 1A2 (Homo sapiens, UniProt P05177); test: Inhibition of human CYP1A2; type: ADME
T1 sequence (P05177 whole entry): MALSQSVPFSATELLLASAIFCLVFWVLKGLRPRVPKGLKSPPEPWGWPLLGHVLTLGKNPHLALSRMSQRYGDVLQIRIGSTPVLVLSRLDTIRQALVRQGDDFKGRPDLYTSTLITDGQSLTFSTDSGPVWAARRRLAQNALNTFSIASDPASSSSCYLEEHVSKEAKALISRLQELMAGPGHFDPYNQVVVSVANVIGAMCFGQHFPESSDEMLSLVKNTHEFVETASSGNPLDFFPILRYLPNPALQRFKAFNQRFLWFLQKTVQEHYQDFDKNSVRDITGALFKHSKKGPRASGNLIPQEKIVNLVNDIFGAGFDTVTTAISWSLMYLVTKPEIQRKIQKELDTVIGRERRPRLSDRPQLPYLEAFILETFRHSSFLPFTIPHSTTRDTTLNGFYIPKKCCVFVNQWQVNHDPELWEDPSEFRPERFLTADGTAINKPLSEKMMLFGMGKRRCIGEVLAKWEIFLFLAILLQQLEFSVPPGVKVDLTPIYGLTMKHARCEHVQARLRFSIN

Cytochrome P450 2C19 = Cytochrome P450 2C19 (Homo sapiens, UniProt P33261); test: Inhibition of human CYP2C19; type: ADME
Cytochrome P450 2C9 = Cytochrome P450 2C9 (Homo sapiens, UniProt P11712); test: Inhibition of human CYP2C9; type: ADME
[3] = Aqueous solubility at pH 7.0; type: physicochemical
[4] = Permeability across human Caco-2 cell membrane; type: ADME, cell-based; conditions: read-out: permeability
Serum = test: Protein binding to human serum; type: ADME, cell-free

Chain of Cytochrome P450 3A4 (P08684 whole entry): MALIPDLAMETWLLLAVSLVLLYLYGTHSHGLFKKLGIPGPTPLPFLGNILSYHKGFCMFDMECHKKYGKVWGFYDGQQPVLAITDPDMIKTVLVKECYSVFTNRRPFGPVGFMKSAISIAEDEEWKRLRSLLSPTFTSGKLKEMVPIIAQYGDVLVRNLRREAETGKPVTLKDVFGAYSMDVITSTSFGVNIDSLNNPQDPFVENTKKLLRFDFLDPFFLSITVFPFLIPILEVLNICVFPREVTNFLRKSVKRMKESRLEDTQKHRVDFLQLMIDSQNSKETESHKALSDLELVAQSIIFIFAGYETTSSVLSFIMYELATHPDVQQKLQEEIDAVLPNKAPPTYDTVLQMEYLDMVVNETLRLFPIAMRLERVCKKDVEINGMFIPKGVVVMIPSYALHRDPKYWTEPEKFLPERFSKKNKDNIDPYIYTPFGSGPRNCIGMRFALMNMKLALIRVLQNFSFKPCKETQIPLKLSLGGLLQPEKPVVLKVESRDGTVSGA
Chain of Cytochrome P450 2C9 (P11712 whole entry): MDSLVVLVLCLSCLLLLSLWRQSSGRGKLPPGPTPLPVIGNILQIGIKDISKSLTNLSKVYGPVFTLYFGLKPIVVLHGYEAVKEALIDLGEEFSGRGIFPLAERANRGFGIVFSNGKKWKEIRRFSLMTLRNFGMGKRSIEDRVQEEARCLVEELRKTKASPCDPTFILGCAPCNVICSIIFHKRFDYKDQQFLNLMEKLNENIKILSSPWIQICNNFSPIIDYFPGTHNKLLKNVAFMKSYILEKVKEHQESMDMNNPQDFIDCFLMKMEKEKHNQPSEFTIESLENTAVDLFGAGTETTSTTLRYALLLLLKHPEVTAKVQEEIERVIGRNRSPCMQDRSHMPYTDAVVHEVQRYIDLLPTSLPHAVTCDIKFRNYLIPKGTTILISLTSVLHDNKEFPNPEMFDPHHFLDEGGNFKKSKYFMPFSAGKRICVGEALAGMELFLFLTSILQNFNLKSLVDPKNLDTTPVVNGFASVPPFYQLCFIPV
Chain of Cytochrome P450 2D6 (P10635 whole entry): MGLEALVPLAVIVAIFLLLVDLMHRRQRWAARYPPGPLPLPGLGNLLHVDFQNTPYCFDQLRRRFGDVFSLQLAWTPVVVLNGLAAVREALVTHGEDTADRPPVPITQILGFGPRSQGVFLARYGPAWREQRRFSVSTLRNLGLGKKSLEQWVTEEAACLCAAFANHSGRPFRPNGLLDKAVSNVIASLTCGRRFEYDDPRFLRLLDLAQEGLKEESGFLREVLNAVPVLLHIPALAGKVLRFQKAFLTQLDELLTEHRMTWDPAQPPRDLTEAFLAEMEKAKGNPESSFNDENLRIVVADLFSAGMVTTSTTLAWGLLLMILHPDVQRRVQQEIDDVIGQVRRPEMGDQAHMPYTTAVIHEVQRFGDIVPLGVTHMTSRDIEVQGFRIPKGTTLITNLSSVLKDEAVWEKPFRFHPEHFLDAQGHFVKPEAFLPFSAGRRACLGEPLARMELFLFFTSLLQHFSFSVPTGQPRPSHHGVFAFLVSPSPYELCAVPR
Chain of Cytochrome P450 2C19 (P33261 whole entry): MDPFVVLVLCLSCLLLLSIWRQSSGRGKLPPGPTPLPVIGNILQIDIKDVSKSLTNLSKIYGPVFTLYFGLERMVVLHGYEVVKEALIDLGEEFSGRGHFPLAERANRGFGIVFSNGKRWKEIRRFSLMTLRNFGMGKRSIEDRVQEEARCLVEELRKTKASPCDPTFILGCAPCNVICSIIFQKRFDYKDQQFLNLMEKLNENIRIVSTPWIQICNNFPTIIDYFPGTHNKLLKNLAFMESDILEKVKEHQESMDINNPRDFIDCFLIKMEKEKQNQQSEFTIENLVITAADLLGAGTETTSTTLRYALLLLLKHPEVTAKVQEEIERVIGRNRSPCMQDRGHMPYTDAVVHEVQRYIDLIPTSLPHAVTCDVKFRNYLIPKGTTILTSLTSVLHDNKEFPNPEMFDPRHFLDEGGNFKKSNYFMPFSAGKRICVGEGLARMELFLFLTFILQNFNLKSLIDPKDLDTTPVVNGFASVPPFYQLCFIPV

| SMILES | IC50 [1] [nM] | IC50 [2] [nM] | also measured |
| --- | --- | --- | --- |
| O=C1Nc2c(I)cccc2C1(c1ccc(O)cc1)c1ccc(O)cc1 | 62 | > 3000 | – |
| O=C1Nc2c(C(F)(F)F)cccc2C1(c1ccc(O)cc1)c1ccc(O)cc1 | – | – | Activity (Cytochrome P450 2D6): > 10 µM; Activity (Cytochrome P450 3A4): > 10 µM; Activity (Cytochrome P450 1A2): > 10 µM; Activity (Cytochrome P450 2C19): 1 µM; Activity (Cytochrome P450 2C9): 1 µM; solubility [3]: 640 µg/mL (≈ 1660 µM); Papp [4]: 1.96 ×10⁻⁶ cm/s |
| O=C(O)c1cccc2c1NC(=O)C2(c1ccc(O)cc1)c1ccc(O)cc1 | > 3000 | > 3000 | – |
| O=C1Nc2c(ccc(F)c2F)C1(c1ccc(O)cc1)c1ccc(O)cc1 | 3 | > 3000 | Activity (Cytochrome P450 2D6): > 10 µM; Activity (Cytochrome P450 3A4): > 10 µM; Activity (Cytochrome P450 1A2): > 10 µM; Activity (Cytochrome P450 2C19): 1 µM; Activity (Cytochrome P450 2C9): 1 µM; Activity (Serum): 98%; solubility [3]: 230 µg/mL (≈ 651 µM); Papp [4]: 4.31 ×10⁻⁶ cm/s |
| COc1ccc(C2(c3ccc(OC)cc3)C(=O)Nc3ccccc32)cc1 | 1800 | > 3000 | – |
| Cc1cccc2c1NC(=O)C2(c1ccc(O)cc1)c1ccc(O)cc1 | 27 | > 3000 | – |
| O=C1Nc2c(ccc3c2CCCCC3)C1(c1ccc(O)cc1)c1ccc(O)cc1 | 55 | > 3000 | – |
| N#Cc1cccc2c1NC(=O)C2(c1ccc(O)cc1)c1ccc(O)cc1 | 57 | > 3000 | – |
| O=C1Nc2ccccc2C1(c1ccc(O)cc1)c1ccc(O)cc1 [OXYPHENISATINE] | 112 | > 3000 | – |
